From patent publication US9815851B2, “Pyrrolo carboxamides as modulators of orphan nuclear receptor RAR-related orphan receptor-gamma (RORγ, NR1F3) activity and for the treatment of chronic inflammatory and autoimmune diseases” (PHENEX PHARMACEUTICALS AG, priority 2011, dated 2017)
Read-outs that look alike come from different tables or passages of the source.

Tests used:
[1] = biological target: T1, RORγ ligand binding domain (LBD) (Homo sapiens, UniProt P51449); experiment: TR-FRET Activity Assay (ligand sensing, RORγ-LBD / coactivator peptide interaction, LANCE); type: biochemical
T1 construct: made in house; host or cells: E. coli BL-21 (BL3), vector pDEST15
T1 sequence (P51449 269-508 limits assumed): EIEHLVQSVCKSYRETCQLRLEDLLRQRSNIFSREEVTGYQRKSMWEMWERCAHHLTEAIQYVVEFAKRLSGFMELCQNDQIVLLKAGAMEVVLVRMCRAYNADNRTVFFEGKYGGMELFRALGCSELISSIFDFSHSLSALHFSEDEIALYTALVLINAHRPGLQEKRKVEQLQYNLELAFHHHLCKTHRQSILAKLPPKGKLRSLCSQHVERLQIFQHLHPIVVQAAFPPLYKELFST

[2] = biological target: T2, RORγ (UniProt P51449); experiment: RORγ Gal4 Reporter Gene Assay in 293T cells (firefly and renilla luciferase); type: cell-based, human
T2 sequence (P51449 1-518): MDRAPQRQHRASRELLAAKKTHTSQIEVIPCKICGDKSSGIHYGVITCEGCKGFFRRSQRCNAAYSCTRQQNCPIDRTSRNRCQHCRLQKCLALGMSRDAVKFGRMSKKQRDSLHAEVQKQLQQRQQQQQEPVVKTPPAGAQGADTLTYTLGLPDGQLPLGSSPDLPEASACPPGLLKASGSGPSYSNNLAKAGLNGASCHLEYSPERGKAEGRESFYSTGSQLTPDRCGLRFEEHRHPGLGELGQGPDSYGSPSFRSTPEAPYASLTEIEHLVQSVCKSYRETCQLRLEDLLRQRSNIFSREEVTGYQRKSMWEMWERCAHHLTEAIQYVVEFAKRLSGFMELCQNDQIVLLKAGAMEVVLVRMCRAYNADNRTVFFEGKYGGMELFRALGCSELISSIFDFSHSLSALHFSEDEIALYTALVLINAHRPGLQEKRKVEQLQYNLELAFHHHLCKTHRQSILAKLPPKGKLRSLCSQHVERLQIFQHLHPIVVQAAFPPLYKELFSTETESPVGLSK

[3] = first value of the cell FRET/FF/REN, TR-FRET activity assay, read-out: pIC50 (FRET) (converted)
[4] = second value of the cell, Gal4 reporter gene assay in 293T cells, firefly luciferase
[5] = third value of the cell, Gal4 reporter gene assay in 293T cells, renilla normalised luciferase

SMILES | IC50 [1, 3] [nM] | pIC50 (FF) [2, 4] | pIC50 (REN) [2, 5] | IC50 [1] [nM] | pIC50 (FF) [2] | pIC50 (REN) [2]
Cc1c(C(=O)NCC(C)(C)O)cc(-c2cc(C(=O)NC(C)C)cc(C(C)(C)C)c2)n1CC1CCCCC1 [15/9] | 1000 | 6.9 | 7.0 | – | – | –
Cc1c(C(=O)NC2CCOCC2)cc(-c2ccc(S(=O)(=O)NC(C)(C)CO)c(C(F)(F)F)c2)n1CC1CCCCC1 [17/107] | 1000 | 6.9 | 6.9 | – | – | –
COC(=O)[C@H]1C[C@H](NC(=O)c2cc(-c3cc(C(C)(C)C)cc(C4(C)CC4)c3)n(CC3CCCCC3)c2C)C1 [17/154] | 316 | 7.2 | 7.3 | – | – | –
Cc1c(C(=O)N[C@H]2C[C@H](C(=O)O)C2)cc(-c2cc(OCC(C)(C)C)nc(C(C)(C)C)c2)n1CC1CCCCC1 [17/195] | 631 | 7.6 | 7.6 | – | – | –
Cc1c(C(=O)NC2COC2)cc(-c2cc(C(=O)NC(C)(C)C)cc(C(F)(F)F)c2)n1CC1CCCCC1 [Example 15, 5-(3-(tert-Butylcarbamoyl)-5-(trifluoromethyl)phenyl)-1-(cyclohexylmethyl)-2-methyl-N-(oxetan-3-yl)-1H-pyrrole-3-carboxamide] | – | – | – | 501 | 6.3/6.9/6.9 | 6.3/6.9/6.9
Cc1c(C(=O)NCC(=O)N(C)C)cc(-c2cc(C(C)(C)C)cc(C(C)(C)C)c2)n1CC1CCCCC1 [1/6] | – | – | – | 631 | 6.2/6.7/6.7 | 6.2/6.7/6.7
Cc1c(C(=O)NCCN2CCN(S(C)(=O)=O)CC2)cc(-c2cc(C(C)(C)C)cc(C3(C)CC3)c2)n1CC1CCCCC1 [17/347] | 398 | 6.5 | 6.5 | – | – | –
CC(C)(C)NS(=O)(=O)c1ccc(-c2cc(C(=O)NCCC(C)(C)C(=O)O)c(F)n2CC2CCCCC2)cc1C(F)(F)F [20/6] | 501 | 6.9 | 6.9 | – | – | –
Cc1c(C(=O)NC2CCOCC2)cc(-c2ccc(S(=O)(=O)NC(C)(C)C)c3c2CCCC3)n1CC1CCCCC1 [17/280] | 1000 | 8.1 | 8.1 | – | – | –
Cc1c(C(=O)NC2CCOCC2)cc(-c2ccc(S(=O)(=O)NC(C)(C)C)c(Cl)c2)n1CC1CCCCC1 [17/234] | 200 | 7.1 | 7.2 | – | – | –
Cc1c(C(=O)NCCCCCO)cc(-c2cc(C(C)(C)C)cc(C3(C)CC3)c2)n1CC1CCCCC1 [1/82] | – | – | – | 158 | 6.8/7.4/7.4 | 6.8/7.4/7.4
Cc1c(C(=O)NCC(F)(F)F)cc(-c2cc(C(C)(C)C)c(O)c(C(C)(C)C)c2)n1CC1CCCCC1 [1/48] | 631 | 6.4 | 6.4 | – | – | –
Cc1c(C(=O)NC2CCOCC2)cc(-c2ccc(S(=O)(=O)NC(C)(C)C)c(C(F)(F)F)c2)n1CC1(F)CCCCC1 [Example 28, 5-(4-(N-(tert-Butyl)sulfamoyl)-3-(trifluoromethyl)phenyl)-1-((1-fluorocyclohexyl)-methyl)-2-methyl-N-(tetrahydro-2H-pyran-4-yl)-1H-pyrrole-3-carboxamide] | 1260 | 6.6 | 6.9 | – | – | –
Cc1c(C(=O)N[C@H]2C[C@H](C(=O)O)C2)cc(-c2cc(C(=O)NC(C)(C)C)cc3ccccc23)n1CC1CCCCC1 [17/189] | 5010 | 6.3 | 6.3 | – | – | –
Cc1c(C(=O)NCC(C)(C)O)cc(-c2cc(C(C)(C)C)nc(C3(C)CC3)n2)n1CC1CCCCC1 [17/356] | 398 | 6.7 | 6.7 | – | – | –
Cc1c(C(=O)NCCC(C)(C)C(=O)O)cc(-c2ccc(S(=O)(=O)NC(C)(C)C(F)(F)F)c(C(F)(F)F)c2)n1CC1CCCCC1 [17/161] | 631 | 7.6 | 7.6 | – | – | –
Cc1c(C(=O)NC2CCOCC2)cc(-c2cc(C(C)(C)C)cc(C3(C)CC3)c2)n1CC1CCCCC1 [1/84] | – | – | – | 158 | 6.8/7.6/7.6 | 6.8/7.6/7.6

SMILES | IC50 [1, 3] [nM] | pIC50 (FF) [2, 4] | pIC50 (REN) [2, 5] | IC50 [1] [nM] | pIC50 (FF) [2] | pIC50 (REN) [2]
Cc1c(C(=O)NC2CCOCC2)cc(-c2ccc(S(=O)(=O)NC(C)(C)C)c(C(F)(F)F)c2)n1CC1CCCC1 [17/214] | 251 | 7.5 | 7.5 | – | – | –
Cc1c(C(=O)N[C@H]2C[C@H](C(=O)O)C2)cc(-c2cc(NCC(C)(C)C)nc(C(C)(C)C)c2)n1CC1CCCCC1 [17/196] | 3980 | 7.0 | 7.0 | – | – | –
Cc1c(C(=O)N[C@H]2C[C@H](C(=O)O)C2)cc(-c2ccc(S(=O)(=O)NC(C)(C)C)c(C(C)(C)O)c2)n1CC1CCCCC1 [17/328] | 501 | 6.6 | 6.6 | – | – | –
Cc1c(C(=O)NCC(C)(C)C(=O)O)cc(-c2ccc(S(=O)(=O)NC(C)(C)C)c(C(C)(C)O)c2)n1CC1CCCCC1 [17/327] | 794 | 6.8 | 6.9 | – | – | –
COC1CN(C(=O)c2cc(-c3cc(C(C)(C)C)cc(C(C)(C)C)c3)n(CC3CCCCC3)c2C)C1 [1/8] | – | – | – | 316 | 6.5/6.4/6.3 | 6.5/6.4/6.3
Cc1c(C(=O)NC2COC2)cc(-c2cc(C(C)(C)C)nc(C(F)(F)F)c2)n1CC1CCCCC1 [9/15] | – | – | – | 316 | 6.5/6.5/6.5 | 6.5/6.5/6.5
Cc1c(C(=O)NC2CCOCC2)cc(-c2ccc(-c3cnc(NC(C)C)nc3)c(C(C)(C)C)c2)n1CC1CCCCC1 [26/4] | 3980 | 6.6 | 6.8 | – | – | –
Cc1c(C(=O)NCCC(C)(C)C(=O)O)cc(-c2ccc(S(=O)(=O)NC(C)(C)C)c3ccccc23)n1CC1CCCCC1 [17/241] | 1260 | 7.7 | 7.8 | – | – | –
Cc1c(C(=O)NC2CCOCC2)cc(-c2ccc(-c3cnn(C(C)(C)C)c3)c(C(C)(C)C)c2)n1CC1CCCCC1 [26/2] | 200 | 7.2 | 7.2 | – | – | –
Cc1c(C(=O)N[C@H]2C[C@H](C(=O)O)C2)cc(-c2cc(C(C)(C)C)cc(C3(C)CC3)c2)n1CC1CCCCC1 [17/326] | 1000 | 7.8 | 7.9 | – | – | –
Cc1c(C(=O)NC2CCS(=O)(=O)CC2)cc(-c2ccc(S(=O)(=O)NC(C)(C)C)c3ccccc23)n1CC1CCCCC1 [17/263] | 316 | 7.9 | 8.0 | – | – | –
COC(=O)C(C)(C)CCNC(=O)c1cc(-c2cc(C(C)(C)C)cc(C3(C)CC3)c2)n(CC2CCCCC2)c1F [20/4] | 200 | 6.9 | 6.9 | – | – | –
Cc1c(C(=O)N[C@H]2C[C@H](C(=O)O)C2)cc(-c2ccc(S(=O)(=O)NC(C)(C)C)c3c2CCCC3)n1CC1CCCCC1 [17/281] | 1000 | 7.7 | 7.7 | – | – | –
Cc1c(C(=O)NC2CCS(=O)(=O)CC2)cc(-c2cc(C(C)(C)O)cc(C3(C)CC3)c2)n1CC1CCCCC1 [17/321] | 1000 | 7.3 | 7.3 | – | – | –
Cc1c(C(=O)NCC(C)(C)O)cc(-c2cc(C(C)(C)C)cc(C(C)(C)C)c2)n1S(=O)(=O)N1CCCCC1 [7/7] | 398 | 6.5 | 6.6 | – | – | –
Cc1c(C(=O)NCC(C)(C)C(=O)O)cc(-c2ccc(S(=O)(=O)NC(C)(C)C)c(C(C)(C)C)c2)n1CC1CCCCC1 [1/129] | 1580 | 7.3 | 7.3 | – | – | –
